How the values were obtained:
Assay type in all cases: cell-based, human
Jurkat T cells = assay: Western blot of proteasome target proteins in Jurkat T cells; conditions: for increase of IκB-α protein levels: at 6 hours
Protocol: (§1) Cell Culture, Cell Extract Preparation, and Western Blot Assay. Human leukemia Jurkat T and prostate cancer LNCaP cells were cultured in RPMI 1640 medium supplemented with 10% fetal calf serum, 100 units/ml of penicillin, and 100 μg/ml streptomycin. Human immortalized, non-transformed NK cells (YT cell line) (38) were cultured in RPMI 1640 supplemented with 1 mM MEM sodium pyruvate solution, 0.1 mM MEM non-essential amino acids solution, 10% fetal calf serum. 100 units/ml penicillin, and 100 μg/ml streptomycin. Normal (WI-38) and simian virus 40 (SV40)-transformed (VA-13) human fibroblasts were grown in Dulbecco's modified Eagle's medium supplemented with 10% fetal calf serum, 100 units/ml of penicillin and 100 μg/ml of streptomycin. All cells were maintained at 37° C. in a humidified incubator with an atmosphere of 5% CO2. A whole cell extract was prepared in accordance with An et al. (An, B. et al. Cell Death Differ, 1998, 5:1062-75). Briefly, cells were harvested, washed with PBS twice, and homogenized in a lysis buffer [50 mM Tris-HCl (pH 8.0), 5 mM EDTA, 150 mM NaCl, 0.5% NP-40, 0.5 mM phenylmethylsulfonyl fluoride, and 0.5 mM dithiothreitol] for 30 min at 4° C. Afterwards, lysates were centrifuged at 12,000×g for 15 min at 4° C., and the supernatants were collected as whole cell extracts. Equal amounts of protein extract (60 μg) were resolved by SDS-polyacrylamide gel electrophoresis and transferred to a nitrocellulose membrane using a Semi-Dry Transfer system (BIO-RAD, Hercules, Calif.). Jurkat T, LNCaP, or DU-145 cells were treated with various concentrations of synthetic or natural tea polyphenols for indicted hours. The enhanced chemiluminescence (ECL) Western blot analysis was then performed using specific antibodies to the proteins of interest (p^27kip, IκB-α, PARP, Bax or actin). The ratio of p27 or IκB-α to the corresponding actin was determined by scanning intensities of the protein bands.
Immortalized, non-transformed normal natural killer (NK) cells (YT line) (Drexler, H. G. et al. Leuk Res, 2000, 24:881-911) and human leukemic Jurkat T cells (as a control) were treated with either (−)-EGCG (as a comparison) or (−)-EGCG-amide for up to 12 hour. […] In contrast, IκB-α expression in non-transformed NK cells was unchanged during each treatment, although the basal level (and the mobility) of IκB-α protein was higher in NK cells (FIGS. 13A and 13B).
Having discovered that the synthetic GTP analogs are potent and specific inhibitors of the proteasomal chymotrypsin-like activity in vitro (FIGS. 16A, 17A, 17B, and 17C), it was then determined whether the synthetic compounds could also be effective in inhibiting intact tumor cell proteasome activity. Because inhibition of the proteasome activity in tumor cells would result in increased levels of proteasome target proteins, levels of p27 and IκB-α proteins were measured by Western blot assay in Jurkat T cells treated with each GTP. After a 12 hour treatment, (+)-EGCG at 10 μM accumulated p27 and IκB-α levels by 3.5- and 3.1-fold, respectively (FIG. 18A). In comparison, the natural (−)-EGCG accumulated p27 and IκB-α, to a slightly lesser extent, by 2.7- and 2.1-fold, respectively (FIG. 18A). In addition, synthetic (+)-GCG increased p27 and IκB-α levels by 3.7- and 3.3-fold, respectively, similar to the results from (−)-GCG treatment (FIG. 18A).

VA-13 cells = assay: Western blot of p27 in SV40-transformed VA-13 fibroblasts; conditions: 25 μM
Protocol: as §1
Normal WI-38 and SV40-transformed VA-13 cell lines were treated with 25 μM of (−)-EGCG, (−)-EGCG-amide, (+)-EGCG, (+)-EGCG-amide, or GTP-1 for either 12 hours or 36 hours.

LNCaP cells = assay: Flow cytometry cell cycle analysis, LNCaP cells; conditions: 10 μM, 24 hours
Protocol: Flow Cytometry. Cell cycle analysis based on DNA content was performed as in An et al. (An, B. et al. Cell Death Differ, 1998, 5:1062-75). At each time point, cells were harvested, counted, and washed twice with PBS. Cells (5×10^6) were suspended in 0.5 ml PBS, fixed in 5 ml of 70% ethanol overnight at −20° C., centrifuged, resuspended again in 1 ml of propidium iodide staining solution (50 μg propidium iodide, 100 units RNase A and 1 mg glucose per ml PBS), and incubated at room temperature for 30 minutes. The cells were then analyzed with FACScan (Becton Dickinson Immunocytometry, Calif.), ModFit LT and WinMDI V.2.8 cell cycle analysis software (Verity Software; Topsham, Me.). The cell cycle distribution is shown as the percentage of cells containing G1, S, G2, and M phase DNA judged by propidium iodide staining The apoptotic population is determined as the percentage of cells with sub-G1 DNA content (<G1).
It has been shown that overexpression of p27 and IκB-α results in G1 arrest. If increased levels of these proteasome target proteins by synthetic GTPs are functional, it would be expected to see growth arrest of tumor cells in G1 phase. To test this hypothesis, asynchronous prostate LNCaP cells were treated with 10 μM of synthetic (+)-EGCG or (+)-GCG, along with each respective natural GTP as control, for 24 hours. Cells were then harvested, and analyzed by cell cycle analysis by flow cytometry. […] Growth arrest was determined by the increase in the percentage of the G1 population.

Compound | increase of IκB-α protein levels (Jurkat T cells; treatment up to 12 hour) | levels of p27 protein (VA-13 cells; 12 hours) | accumulation of IκB-α levels (Jurkat T cells; 10 μM, 12 hour treatment) | accumulation of p27 levels (Jurkat T cells; 10 μM, 12 hour treatment) | increase of G1 population (G1 arrest) (LNCaP cells) | increase in IκB-α levels as compared to (−)-EGCG (Jurkat T cells; 10 μM, 12 hour treatment) | increase in p27 levels as compared to (−)-EGCG (Jurkat T cells; 10 μM, 12 hour treatment) | increase in G1 arrest as compared to (−)-EGCG (LNCaP cells) | increase of p27 levels (Jurkat T cells; treatment up to 12 hour) | levels of p27 protein (VA-13 cells; 36 hours)
O=C(N[C@@H]1Cc2c(O)cc(O)cc2O[C@@H]1c1cc(O)c(O)c(O)c1)c1cc(O)c(O)c(O)c1 [(−)-EGCG-amide, (−)-[2R,3R]-N-[5,7-Dihydroxy-2-(3,4,5-trihydroxyphenyl)-chroman-3-yl]-3,4,5-trihydroxybenzamide] | ≤ 8 fold | significantly increased levels of p27 protein | – | – | – | – | – | – | – | –
O=C(OC1Cc2c(O)cc(O)cc2OC1c1cc(O)c(O)c(O)c1)c1cc(O)c(O)c(O)c1 (single isomer, unassigned; (+)) [(+)-GCG] | – | – | 3.3 fold | 3.7 fold | ~14% | – | – | – | – | –
O=C(OC1Cc2c(O)cc(O)cc2OC1c1cc(O)c(O)c(O)c1)c1cc(O)c(O)c(O)c1 (single isomer, unassigned; (+)) [(+)-EGCG] | – | significantly increased levels of p27 protein | 3.1 fold | 3.5 fold | 18% | 47% | ~30% | approximately 30% | – | –
O=C(O[C@@H]1Cc2c(O)cc(O)cc2O[C@@H]1c1cc(O)c(O)c(O)c1)c1cc(O)c(O)c(O)c1 [(−)-EGCG, (−)-epigallocatechin-3-gallate, reference compound] | up to 6 fold | significantly increased levels of p27 protein | 2.1 fold | 2.7 fold | ~14% | – | – | – | 17 fold | accumulated p27 levels

Reference: patent US9399631B2, “Polyphenol proteasome inhibitors, synthesis, and methods of use” (UNIVERSITY OF SOUTH FLORIDA, priority 2003, dated 2016)
